Data reported in PMC9898191 (Nature chemical biology, 2022).

How the values were obtained:
[1] = test system: PM translocation of EGFP-Syk WT in Syk−/− DT40 cells; test: Subcellular localization of EGFP-Syk WT in IgM-stimulated Syk-null DT40 cells; format: cell-based; conditions: 10 nM overnight
[2] = molecular target: Syk in MV4-11 cells (Homo sapiens, UniProt P43405); test: WC36B-streptavidin pull down assay with immunoblotting; format: binding
[3] = test system: WC36B-binding cellular proteins of MV4-11 cells; test: Mass spectrometry-based proteomics of WC36B-binding cellular proteins; set-up: species or system human; conditions: biotin as negative control
[4] = test system: phosphorylation of Syk, ERK1/2 and STAT3/5 in entospletinib-resistant MV4-11 cells; conditions: 5 μM
[5] = test system: HL60 cells; test: XTT cell proliferation assay, HL-60 cells; format: cell-based
[6] = test system: ZAP-70 phosphorylation in Jurkat T cells; test: Western blot of ZAP-70 phosphorylation in Jurkat T cells; format: cell-based; conditions: 5 μM overnight, OKT3 stimulated
[7] = test system: phosphorylation of ERK1/2 and STAT3/5 in RAS-mutated HL60 cells; test: Western blot of IgG2-stimulated phosphorylation in HL-60 cells; format: cell-based; conditions: 5 μM

CS(=O)(=O)N1CCN(Cc2cc3nc(-c4cccc5[nH]ncc45)nc(N4CCOCC4)c3s2)CC1 [GDC-0941]
PM translocation of EGFP-Syk WT [1]: greatly suppressed

[N-]=[N+]=C(C(=O)NCCNC(=O)CCCC[C@H]1SC[C@H]2NC(=O)N[C@H]21)C(Nc1ncccn1)c1c[nH]c2ccccc12 (some centres unmarked) [WC36B]
capture of Syk by streptavidin beads pulldown ([2]; MV4-11 cells, 5 μM, 24 h): targets Syk
proteins captured compared with biotin control [3]: Syk is the single major protein

c1cn2cc(-c3ccc4cn[nH]c4c3)nc(Nc3ccc(N4CCOCC4)cc3)c2n1 [entospletinib]
inhibition of phosphorylation of Syk, ERK1/2 and STAT3/5 [4]: could not inhibit phosphorylation
suppression of proliferation (XTT assay) [5]: ineffective
inhibition of ZAP-70 phosphorylation [6]: significantly inhibited
suppression of phosphorylation of ERK1/2 and STAT3/5 [7]: could not suppress phosphorylation

Nc1ncnc2c1ncn2[C@@H]1O[C@H](COP(=O)(O)OP(=O)(O)OP(=O)(O)O)[C@@H](O)[C@H]1O [ATP]
competition with WC36B for Syk binding ([2]; WC36 10 μM, entospletinib 10 μM, ATP 1 mM): only WC36 was able to compete
